Laboratory results as given in patent US7319098B2, “1,3-dioxoisoindole derivatives having selective antagonism of T-type calcium channel” (Korea Institute of Science and Technology, priority 2006, dated 2008).

target: T1, α1G T-type Ca2+ channels (Homo sapiens, UniProt O43497); assay: Screening of activity against T-type calcium channel with FDSS6000 (fluorescence, KCl-induced [Ca2+]i increase); format: cell-based; conditions: 100 μM; HEK293 cells expressing α1G and Kir2.1; read-out: Inhibitory effect (%) of T-type calcium channel, Inhibition (%)
T1 construct: expressed in transfected cells; host or cells: HEK293 cells stably expressing α1G and Kir2.1
Method: Meanwhile, the antagonistic activity of the novel compound of Formula (1) herein against T-type calcium channel was tested as described below. The synthesized compounds were tested for the activity against T-type calcium channel with FDSS6000. Compounds with good activity were selected and IC50 values were exactly obtained by using electrophysiological whole cell patch clamp method. HEK293 cells which stably express both α1G and Kir2.1 subunits were grown in Dulbecco's modified Eagle's medium supplemented with 10% (v/v) fetal bovine serum, penicillin (100 U/mL), streptomycin (100 μg/mL), geneticin (500 μg/mL), and +puromycin (I μg/mL) at 37° C. in a humid atmosphere of 5% CO2 and 95% air. Cells were seeded into 96-well black wall clear bottom plates at a density of 4×10^4 cells/well and were used the next day for high-throughput screening (HTS) FDSS6000 assay. For FDSS6000 assay, cells were incubated for 60 min at room temperature with 5 μM fluo3/AM and 0.001% Pluronic F-127 in a HEPES-buffered solution composed of (in mM): 115 NaCl, 5.4 KCl, 0.8 MgCl2, 1.8 CaCl2, 20 HEPES, 13.8 glucose (pH 7.4). During the fluorescence-based FDSS6000 assay, cells in HEPES-buffered solution containing 10 mM CaCl2 were pretreated with a certain concentration of test compounds and then treated with high concentration of KCl ([…]). α1G T-type Ca^2+ channels were activated by using high concentration of KCl (70 mM) and the increase in [Ca^2+]i by KCl-induced depolarization was detected. During the whole procedure, cells were washed using the BIO-TEK 96-well washer. All data were collected and analyzed using FDSS6000 and related software (Hamamatsu, Japan). The IC50 results of examining the inhibitory effects of the compounds herein selected with FDSS6000 on the calcium influx through the T-type calcium channel are provided in TABLEs 1 and 2.

T1 sequence (O43497 whole entry): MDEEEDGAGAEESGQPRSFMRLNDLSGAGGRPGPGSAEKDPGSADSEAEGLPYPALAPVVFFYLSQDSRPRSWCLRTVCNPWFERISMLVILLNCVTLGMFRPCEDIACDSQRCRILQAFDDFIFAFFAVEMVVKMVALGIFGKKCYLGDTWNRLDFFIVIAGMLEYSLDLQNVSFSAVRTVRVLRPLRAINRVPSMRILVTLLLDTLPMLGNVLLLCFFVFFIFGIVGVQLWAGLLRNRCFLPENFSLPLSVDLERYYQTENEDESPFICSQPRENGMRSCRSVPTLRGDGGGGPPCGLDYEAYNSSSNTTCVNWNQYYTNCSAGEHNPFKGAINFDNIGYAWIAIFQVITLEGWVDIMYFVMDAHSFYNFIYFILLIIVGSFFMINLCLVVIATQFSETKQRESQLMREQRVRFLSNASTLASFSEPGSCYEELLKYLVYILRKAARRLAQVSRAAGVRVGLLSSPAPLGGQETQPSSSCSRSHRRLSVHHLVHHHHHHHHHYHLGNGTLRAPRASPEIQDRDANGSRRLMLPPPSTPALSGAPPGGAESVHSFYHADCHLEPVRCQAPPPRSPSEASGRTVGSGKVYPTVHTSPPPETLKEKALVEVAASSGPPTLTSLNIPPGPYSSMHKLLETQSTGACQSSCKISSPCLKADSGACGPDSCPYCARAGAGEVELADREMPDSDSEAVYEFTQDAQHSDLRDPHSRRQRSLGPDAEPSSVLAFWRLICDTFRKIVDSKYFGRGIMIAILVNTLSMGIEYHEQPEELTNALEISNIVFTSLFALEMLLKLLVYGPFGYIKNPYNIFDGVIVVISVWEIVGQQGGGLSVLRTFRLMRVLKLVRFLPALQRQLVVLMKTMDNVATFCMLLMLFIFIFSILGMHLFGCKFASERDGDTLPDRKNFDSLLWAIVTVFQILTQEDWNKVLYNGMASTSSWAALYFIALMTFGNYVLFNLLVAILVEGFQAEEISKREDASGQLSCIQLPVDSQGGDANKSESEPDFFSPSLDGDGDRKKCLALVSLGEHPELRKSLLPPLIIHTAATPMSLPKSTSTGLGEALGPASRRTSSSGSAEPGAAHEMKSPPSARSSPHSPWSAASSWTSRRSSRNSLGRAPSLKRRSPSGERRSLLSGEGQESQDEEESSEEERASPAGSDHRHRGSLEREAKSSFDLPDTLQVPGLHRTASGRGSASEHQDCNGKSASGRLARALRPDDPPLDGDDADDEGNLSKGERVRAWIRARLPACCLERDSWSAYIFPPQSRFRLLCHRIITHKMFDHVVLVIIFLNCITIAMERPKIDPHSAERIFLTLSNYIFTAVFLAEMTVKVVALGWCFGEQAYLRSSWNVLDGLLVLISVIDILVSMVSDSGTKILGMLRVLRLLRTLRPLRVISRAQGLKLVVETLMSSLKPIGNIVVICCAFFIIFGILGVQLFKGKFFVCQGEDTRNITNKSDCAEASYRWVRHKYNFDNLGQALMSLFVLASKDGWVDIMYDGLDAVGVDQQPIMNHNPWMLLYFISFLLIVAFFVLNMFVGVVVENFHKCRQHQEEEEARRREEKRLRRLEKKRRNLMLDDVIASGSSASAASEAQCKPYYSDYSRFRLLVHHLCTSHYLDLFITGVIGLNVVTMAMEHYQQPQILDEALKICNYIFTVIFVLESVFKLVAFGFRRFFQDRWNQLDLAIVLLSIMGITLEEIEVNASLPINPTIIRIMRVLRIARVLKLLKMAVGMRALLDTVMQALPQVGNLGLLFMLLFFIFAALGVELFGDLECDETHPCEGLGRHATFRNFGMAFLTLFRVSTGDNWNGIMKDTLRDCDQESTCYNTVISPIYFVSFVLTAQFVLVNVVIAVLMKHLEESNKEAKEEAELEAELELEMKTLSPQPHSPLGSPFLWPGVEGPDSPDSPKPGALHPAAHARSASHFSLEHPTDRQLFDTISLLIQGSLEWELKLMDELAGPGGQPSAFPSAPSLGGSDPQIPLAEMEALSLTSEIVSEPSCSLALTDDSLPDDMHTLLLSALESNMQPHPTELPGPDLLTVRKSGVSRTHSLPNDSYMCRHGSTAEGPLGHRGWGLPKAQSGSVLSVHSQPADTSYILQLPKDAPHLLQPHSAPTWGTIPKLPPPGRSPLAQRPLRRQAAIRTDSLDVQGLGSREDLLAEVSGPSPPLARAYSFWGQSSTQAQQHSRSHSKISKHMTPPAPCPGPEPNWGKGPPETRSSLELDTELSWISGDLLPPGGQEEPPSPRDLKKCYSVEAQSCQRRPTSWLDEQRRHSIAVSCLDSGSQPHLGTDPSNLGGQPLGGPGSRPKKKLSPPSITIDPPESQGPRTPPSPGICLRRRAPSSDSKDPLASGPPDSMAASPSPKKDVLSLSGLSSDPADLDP

| SMILES | inhibition at 100 µM [%] |
| --- | --- |
| O=C(NCCN1CCCCC1)c1ccc2c(c1)C(=O)N(c1ccccc1F)C2=O [Compound 7, 1-(2-{[2-(2-fluoro-phenyl)-1,3-dioxo-2,3-dihydro-1H-isoindol-5-carbonyl]-amino}-ethyl)-piperidinium chloride] | 40.6 |
| CC1CCCCN1CCCNC(=O)c1ccc2c(c1)C(=O)N(c1ccccc1F)C2=O (stereo not drawn) [Compound 8, 1-(3-{[2-(2-fluoro-phenyl)-1,3-dioxo-2,3-dihydro-1H-isoindol-5-carbonyl]-amino}-propyl)-2-methyl-piperidinium chloride] | 36.8 |
| O=C(NCCN1CCCC1)c1ccc2c(c1)C(=O)N(c1ccccc1F)C2=O [Compound 9, 1-(2-{[2-(2-fluoro-phenyl)-1,3-dioxo-2,3-dihydro-1H-isoindol-5-carbonyl]-amino}-ethyl)-pyrrolidinium chloride] | 39.7 |
| O=C(NCCN1CCOCC1)c1ccc2c(c1)C(=O)N(c1ccccc1F)C2=O [Compound 11, 4-(2-{[2-(2-fluoro-phenyl)-1,3-dioxo-2,3-dihydro-1H-isoindol-5-carbonyl]-amino}-ethyl)-4-morpholinium chloride] | 22.7 |
| O=C(NCCCN1CCOCC1)c1ccc2c(c1)C(=O)N(c1ccccc1F)C2=O [Compound 12, 4-(3-{[2-(2-fluoro-phenyl)-1,3-dioxo-2,3-dihydro-1H-isoindol-5-carbonyl]-amino}-propyl)-4-morpholinium chloride] | 21.1 |
| O=C(NCCN1CCCCC1)c1ccc2c(c1)C(=O)N(c1cccc(F)c1)C2=O [Compound 13, 1-(2-{[2-(3-fluoro-phenyl)-1,3-dioxo-2,3-dihydro-1H-isoindol-5-carbonyl]-amino}-ethyl)-piperidinium chloride] | 43 |
| CC1CCCCN1CCCNC(=O)c1ccc2c(c1)C(=O)N(c1cccc(F)c1)C2=O (stereo not drawn) [Compound 14, 1-(3-{[2-(3-fluoro-phenyl)-1,3-dioxo-2,3-dihydro-1H-isoindol-5-carbonyl]-amino}-propyl)-2-methyl-piperidinium chloride] | 44.2 |
| O=C(NCCN1CCCC1)c1ccc2c(c1)C(=O)N(c1cccc(F)c1)C2=O [Compound 15, 1-(2-{[2-(3-fluoro-phenyl)-1,3-dioxo-2,3-dihydro-1H-isoindol-5-carbonyl]-amino}-ethyl)-pyrrolidinium chloride] | 25.8 |
| O=C(NCCN1CCOCC1)c1ccc2c(c1)C(=O)N(c1cccc(F)c1)C2=O [Compound 17, 4-(2-{[2-(3-fluoro-phenyl)-1,3-dioxo-2,3-dihydro-1H-isoindol-5-carbonyl]-amino}-ethyl)-4-morpholinium chloride] | 29.2 |
| O=C(NCCCN1CCOCC1)c1ccc2c(c1)C(=O)N(c1cccc(F)c1)C2=O [Compound 18, 4-(3-{[2-(3-fluoro-phenyl)-1,3-dioxo-2,3-dihydro-1H-isoindol-5-carbonyl]-amino}-propyl)-4-morpholinium chloride] | 22.7 |
| O=C(NCCN1CCCCC1)c1ccc2c(c1)C(=O)N(c1ccc(F)cc1)C2=O [Compound 19, 1-(2-{[2-(4-fluoro-phenyl)-1,3-dioxo-2,3-dihydro-1H-isoindol-5-carbonyl]-amino}-ethyl)-piperidinium chloride] | 45.7 |
| CC1CCCCN1CCCNC(=O)c1ccc2c(c1)C(=O)N(c1ccc(F)cc1)C2=O (stereo not drawn) [Compound 20, 1-(3-{[2-(4-fluoro-phenyl)-1,3-dioxo-2,3-dihydro-1H-isoindol-5-carbonyl]-amino}-propyl)-2-methyl-piperidinium chloride] | 44.7 |
| O=C(NCCN1CCCC1)c1ccc2c(c1)C(=O)N(c1ccc(F)cc1)C2=O [Compound 21, 1-(2-{[2-(4-fluoro-phenyl)-1,3-dioxo-2,3-dihydro-1H-isoindol-5-carbonyl]-amino}-ethyl)-pyrrolidinium chloride] | 19.4 |
| O=C(NCCN1CCOCC1)c1ccc2c(c1)C(=O)N(c1ccc(F)cc1)C2=O [Compound 23, 4-(2-{[2-(4-fluoro-phenyl)-1,3-dioxo-2,3-dihydro-1H-isoindol-5-carbonyl]-amino}-ethyl)-4-morpholinium chloride] | 14.5 |
| O=C(NCCCN1CCOCC1)c1ccc2c(c1)C(=O)N(c1ccc(F)cc1)C2=O [Compound 24, 4-(3-{[2-(4-fluoro-phenyl)-1,3-dioxo-2,3-dihydro-1H-isoindol-5-carbonyl]-amino}-propyl)-4-morpholinium chloride] | 21.4 |
| O=C(NCCN1CCCCC1)c1ccc2c(c1)C(=O)N(c1ccccc1Cl)C2=O [Compound 25, 1-(2-{[2-(2-chloro-phenyl)-1,3-dioxo-2,3-dihydro-1H-isoindol-5-carbonyl]-amino}-ethyl)-piperidinium chloride] | 38.2 |
| O=C(NCCN1CCCCC1)c1ccc2c(c1)C(=O)N(c1cccc(Cl)c1)C2=O [Compound 26, 1-(2-{[2-(3-chloro-phenyl)-1,3-dioxo-2,3-dihydro-1H isoindol-5-carbonyl]-amino}-ethyl)-piperidinium chloride] | 52.7 |
| O=C(NCCN1CCCCC1)c1ccc2c(c1)C(=O)N(c1ccc(Cl)cc1)C2=O [Compound 27, 1-(2-{[2-(4-chloro-phenyl)-1,3-dioxo-2,3-dihydro-1H-isoindol-5-carbonyl]-amino}-ethyl)-piperidinium chloride] | 44.5 |
| Cc1ccccc1N1C(=O)c2ccc(C(=O)NCCN3CCCCC3)cc2C1=O [Compound 28, 1-{2-[(1,3-dioxo-2-o-tolyl-2,3-dihydro-1H-isoindol-5-carbonyl)-amino]-ethyl}-piperidinium chloride] | 45.6 |
| Cc1ccccc1N1C(=O)c2ccc(C(=O)NCCCN3CCCCC3C)cc2C1=O (stereo not drawn) [Compound 29, 1-{3-[(1,3-dioxo-2-o-tolyl-2,3-dihydro-1H-isoindol-5-carbonyl)-amino]-propyl}-2-methyl-piperidinium chloride] | 53.8 |
| Cc1ccccc1N1C(=O)c2ccc(C(=O)NCCN3CCCC3)cc2C1=O [Compound 30, 1-{2-[(1,3-dioxo-2-o-tolyl-2,3-dihydro-1H-isoindol-5-carbonyl)-amino]-ethyl}-pyrrolidinium chloride] | 33.6 |

More lines, now with the values ahead:

| inhibition at 100 µM [%] | SMILES |
| --- | --- |
| 28.1 | O=C(NCCN1CCCCC1)c1ccc2c(c1)C(=O)N(c1ccccc1)C2=O [Compound 1, 1-{2-[(1,3-dioxo-2-phenyl-2,3-dihydro-1H-isoindol-5-carbonyl)-amino]-ethyl}-piperidinium chloride] |
| 33.8 | CC1CCCCN1CCCNC(=O)c1ccc2c(c1)C(=O)N(c1ccccc1)C2=O (stereo not drawn) [Compound 2, 1-{3-[(1,3-dioxo-2-phenyl-2,3-dihydro-1H-isoindol-5-carbonyl)-amino]-propyl}-2-methyl-piperidinium chloride] |
| 20.3 | O=C(NCCN1CCCC1)c1ccc2c(c1)C(=O)N(c1ccccc1)C2=O [Compound 3, 1-{2-[(1,3-dioxo-2-phenyl-2,3-dihydro-1H-isoindol-5-carbonyl)-amino]-ethyl}-pyrrolidinium chloride] |
| 38.7 | O=C(NCCCN1CCCC1)c1ccc2c(c1)C(=O)N(c1ccccc1)C2=O [Compound 4, 1-{3-[(1,3-dioxo-2-phenyl-2,3-dihydro-1H-isoindol-5-carbonyl)-amino]-propyl}-pyrrolidinium chloride] |
| 22.7 | O=C(NCCN1CCOCC1)c1ccc2c(c1)C(=O)N(c1ccccc1)C2=O [Compound 5, 4-{2-[(1,3-dioxo-2-phenyl-2,3-dihydro-1H-isoindol-5-carbonyl)-amino]-ethyl}-4-morpholinium chloride] |
| 22.3 | O=C(NCCCN1CCOCC1)c1ccc2c(c1)C(=O)N(c1ccccc1)C2=O [Compound 6, 4-{3-[(1,3-dioxo-2-phenyl-2,3-dihydro-1H-isoindol-5-carbonyl)-amino]-propyl}-4-morpholinium chloride] |
| 32.5 | O=C(NCCCN1CCCC1)c1ccc2c(c1)C(=O)N(c1ccccc1F)C2=O [Compound 10, 1-(3-{[2-(2-fluoro-phenyl)-1,3-dioxo-2,3-dihydro-1H-isoindol-5-carbonyl]-amino}-propyl)-pyrrolidinium chloride] |
| 30 | O=C(NCCCN1CCCC1)c1ccc2c(c1)C(=O)N(c1cccc(F)c1)C2=O [Compound 16, 1-(3-{[2-(3-fluoro-phenyl)-1,3-dioxo-2,3-dihydro-1H-isoindol-5-carbonyl]-amino}-propyl)-pyrrolidinium chloride] |
| 19.3 | O=C(NCCCN1CCCC1)c1ccc2c(c1)C(=O)N(c1ccc(F)cc1)C2=O [Compound 22, 1-(3-{[2-(4-fluoro-phenyl)-1,3-dioxo-2,3-dihydro-1H-isoindol-5-carbonyl]-amino}-propyl)-pyrrolidinium chloride] |
